Experiments:
Assay in all cases: relative viability vs DMSO control (72 h) (fraction); higher = more viable cells
A204 = test system: A204
In short: (§1)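 Serially diluted compound, 2.5 µl from source plates spanning 10 mM to 0.0002 mM, was added 24 h after sarcoma cell lines were seeded in 384-well plates at densities targeting 80–90% confluence. Plates then sat 72 h at 37 °C, 5% CO2, with 0.1% DMSO vehicle and a 5 µM positive control. Relative viability came from ATPLite as percent growth, averaged over up to triplicate wells, and was rescaled with 1 as full and 0 as none.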

HS729 = test system: HS729
In short: as §1

KHOS-NP = test system: KHOS-NP
In short: as §1

SW684 = test system: SW684
In short: as §1

SW872 = test system: SW872
In short: as §1

C#Cc1cccc(Nc2ncnc3cc(OCCOC)c(OCCOC)cc23)c1 [Erlotinib]
relative viability
Conditions	A204	HS729	KHOS-NP	SW684	SW872
0.00017 µM	1.06	1.03	1.11	1.16	1.11
0.00051 µM	1.13	0.978	1.092	1.15	1.12
0.00152 µM	1.09	0.976	1.11	1.14	1.14
0.00457 µM	1.09	0.961	1.11	1.23	1.11
0.01372 µM	1.07	1.01	1.11	1.23	1.07
0.04115 µM	1.1	1	1.1	1.19	1.1
0.1235 µM	1.09	0.995	1.095	1.17	1.11
0.3704 µM	1.09	1.01	1.1	1.19	1.06
1.111 µM	1.01	0.92	1.1	1.2	1.04
3.333 µM	0.822	0.781	1.086	1.18	0.822
10 µM	0.546	0.714	1.04	1.05	0.638

Cc1ccc(NC(=O)c2ccc(CN3CCN(C)CC3)cc2)cc1Nc1nccc(-c2cccnc2)n1 [Imatinib]
relative viability
Conditions	A204	HS729	KHOS-NP	SW684	SW872
0.00017 µM	1.01	0.972	1.01	0.968	0.973
0.00051 µM	1.01	0.996	1.001	0.9679	0.963
0.00152 µM	0.993	1.02	1.01	0.985	0.954
0.00457 µM	0.99	0.991	1	1.02	0.971
0.01372 µM	0.95	0.977	1.02	0.948	0.992
0.04115 µM	0.87	0.985	0.997	0.9868	0.968
0.1235 µM	0.738	0.993	1.03	1.01	0.969
0.3704 µM	0.491	0.945	1.01	1.02	0.976
1.111 µM	0.389	0.917	1.01	1.03	0.982
3.333 µM	0.312	0.86	0.8795	0.973	0.916
10 µM	0.196	0.522	0.609	0.59	0.627

N#CCC1(n2cc(-c3ncnc4[nH]ccc34)cn2)CN(C2CCN(C(=O)c3ccnc(C(F)(F)F)c3F)CC2)C1 [Itacitinib]
relative viability
Conditions	A204	HS729	KHOS-NP	SW684	SW872
0.00017 µM	1.02	1	1.087	1.1	1.012
0.00051 µM	1.02	0.966	1.11	1.09	1.03
0.00152 µM	1.03	0.937	1.09	1.09	0.975
0.00457 µM	1.02	0.889	1.07	1.1	0.972
0.01372 µM	1.04	0.833	1.06	1.07	0.971
0.04115 µM	1.03	0.885	1.048	1.07	0.94
0.1235 µM	1.01	0.792	1.035	1.06	0.891
0.3704 µM	0.959	0.822	1.01	1.08	0.911
1.111 µM	0.948	0.806	0.991	1.1	0.901
3.333 µM	0.936	0.758	0.942	1.06	0.902
10 µM	0.836	0.751	0.914	0.977	0.859

N#Cc1ccnc(N2C(=O)CC[C@H]2C(=O)N(c2cncc(F)c2)[C@H](C(=O)NC2CC(F)(F)C2)c2ccccc2Cl)c1 [Ivosidenib]
relative viability
Conditions	A204	HS729	KHOS-NP	SW684	SW872
0.00017 µM	1.07	0.966	1.05	1.056	1.03
0.00051 µM	1.03	1	1.05	1.07	1.04
0.00152 µM	1.11	1.01	1.07	1.08	1.04
0.00457 µM	1.06	1.01	1.07	1.11	1.052
0.01372 µM	1.04	0.998	1.05	1.13	1.06
0.04115 µM	1.03	0.993	1.05	1.06	1.03
0.1235 µM	1.05	1.01	1.06	1.11	1.03
0.3704 µM	1.015	1	1.03	1.1	1.04
1.111 µM	1.06	0.982	1.05	1.1	1.05
3.333 µM	1.03	0.949	1.05	1.1	1.047
10 µM	0.971	0.96	1.06	1	1.04

COc1cc2nccc(Oc3ccc(NC(=O)NC4CC4)c(Cl)c3)c2cc1C(N)=O [Lenvatinib]
relative viability
Conditions	A204	HS729	KHOS-NP	SW684	SW872
0.00017 µM	1	1.01	1.07	1.13	1.07
0.00051 µM	1.04	1.07	1.04	1.12	1.1
0.00152 µM	1.03	1.04	1.05	1.14	1.08
0.00457 µM	1.02	1.04	1.07	1.133	1.07
0.01372 µM	0.79	1.016	1.08	1.13	1.05
0.04115 µM	0.551	1.014	1.08	1.13	1.05
0.1235 µM	0.406	0.945	1.06	1.11	1.03
0.3704 µM	0.345	0.833	1.091	1.14	1.05
1.111 µM	0.267	0.702	1.07	1.16	1.06
3.333 µM	0.186	0.621	1.09	1.19	1.05
10 µM	0.167	0.542	1.08	1.11	0.953

C[C@H]1Oc2cc(cnc2N)-c2c(nn(C)c2C#N)CN(C)C(=O)c2ccc(F)cc21 [Lorlatinib]
relative viability
Conditions	A204	HS729	KHOS-NP	SW684	SW872
0.00017 µM	1.08	1.06	1.09	1.13	1.08
0.00051 µM	1.11	0.956	1.091	1.2	1.05
0.00152 µM	1.1	0.897	1.09	1.17	1.04
0.00457 µM	1.13	0.958	1.07	1.17	1.04
0.01372 µM	1.1	0.878	1.07	1.17	1
0.04115 µM	1.07	0.886	1.06	1.185	0.956
0.1235 µM	1.05	0.829	1.02	1.15	0.921
0.3704 µM	1.05	0.899	1.07	1.09	0.838
1.111 µM	1.01	0.803	0.999	1.14	0.798
3.333 µM	0.981	0.781	1.02	1.12	0.718
10 µM	0.988	0.662	0.954	1.12	0.658

Cc1c(F)cc(C(=O)NC2CC2)cc1-c1ccc(C(=O)NCC(C)(C)C)cn1 [Losmapimod]
relative viability
Conditions	A204	HS729	KHOS-NP	SW684	SW872
0.00017 µM	1.06	1.09	1.08	1.11	1.04
0.00051 µM	1.07	1.04	1.1	1.2	1.08
0.00152 µM	1.07	1.06	1.09	1.24	1.07
0.00457 µM	1.06	1.02	1.1	1.21	1.05
0.01372 µM	1.1	0.972	1.11	1.18	1.06
0.04115 µM	1.07	0.954	1.12	1.15	1.04
0.1235 µM	1.07	0.903	1.097	1.13	1.06
0.3704 µM	1.03	0.848	1.1	1.25	1.04
1.111 µM	1.03	0.818	1.097	1.21	1.05
3.333 µM	0.992	0.805	1.081	1.18	1.04
10 µM	0.901	0.809	1.1	1.19	1.04

CO[C@@H]1[C@H](N(C)C(=O)c2ccccc2)C[C@H]2O[C@]1(C)n1c3ccccc3c3c4c(c5c6ccccc6n2c5c31)C(=O)NC4 [Midostaurin]
relative viability
Conditions	A204	HS729	KHOS-NP	SW684	SW872
0.00017 µM	1.04	0.927	1.04	1.08	0.976
0.00051 µM	1.03	0.913	1.04	1.05	1
0.00152 µM	1.02	0.914	1.04	1.05	0.965
0.00457 µM	0.997	0.921	1.038	1.02	0.958
0.01372 µM	1.01	0.874	1.02	1.04	0.945
0.04115 µM	0.961	0.828	1.02	1.05	0.896
0.1235 µM	0.792	0.791	0.987	1.08	0.826
0.3704 µM	0.485	0.684	0.893	0.863	0.592
1.111 µM	0.263	0.368	0.39	0.524	0.399
3.333 µM	0.192	0.269	0.257	0.406	0.253
10 µM	0.157	0.273	0.271	0.363	0.219

Cc1ccc(C(=O)OCc2ccc([C@@H](CN)C(=O)Nc3ccc4cnccc4c3)cc2)c(C)c1 [Netarsudil]
relative viability
Conditions	A204	HS729	KHOS-NP	SW684	SW872
0.00017 µM	1.03	0.874	1.03	1.12	0.997
0.00051 µM	1.05	0.85	1.06	1.1	1.01
0.00152 µM	1.04	0.899	1.03	1.11	1.01
0.00457 µM	1.03	0.852	1.05	1.11	0.988
0.01372 µM	1.01	0.87	1.03	1.09	1.01
0.04115 µM	0.963	0.896	1.03	1.076	0.955
0.1235 µM	0.841	0.876	1	0.991	0.961
0.3704 µM	0.82	0.844	0.997	0.8806	0.82
1.111 µM	0.703	0.812	0.968	0.884	0.74
3.333 µM	0.609	0.8113	0.986	0.805	0.637
10 µM	0.00737	0.224	0.0142	-0.0136	0.000233

Cc1cn(-c2cc(NC(=O)c3ccc(C)c(Nc4nccc(-c5cccnc5)n4)c3)cc(C(F)(F)F)c2)cn1 [Nilotinib]
relative viability
Conditions	A204	HS729	KHOS-NP	SW684	SW872
0.00017 µM	1	0.914	1.038	1.04	0.959
0.00051 µM	0.979	0.914	1.05	1.07	0.91
0.00152 µM	1.03	0.92	1.04	1.09	0.924
0.00457 µM	1.04	0.915	1.05	1.07	0.926
0.01372 µM	1.05	0.922	1.02	1.07	0.948
0.04115 µM	1.074	0.907	1.02	1.12	0.971
0.1235 µM	1.01	0.848	1.044	1.21	1.01
0.3704 µM	0.662	0.792	1.03	1.32	0.999
1.111 µM	0.421	0.766	1.04	1.26	0.94
3.333 µM	0.34	0.656	1.02	1.24	0.796
10 µM	0.345	0.737	0.929	1.15	0.766
